Test results as given in patent US20080161404A1 (ASTRAZENECA AB, priority 2005, published 2008).
“And” between values parts separate entries of the source, which are not always exact repeats. Identical values can stand only once. Like-named read-outs stand apart in the source and are kept apart here.

Experiments:
[1] = Clinical pharmacokinetics of (R)-bicalutamide (Css, t1/2) in prostate cancer patients given bicalutamide 300-600 mg once daily (Example 1); format: in vivo, human; conditions: for Steady state plasma conc. geometric mean: (R)-bicalutamide
Experimental: Plasma samples were stored at −20° C. until analysis. […] Quantification of the enantiomers was achieved using ultra-violet absorbance.
Method: Assays were performed using 0.5 ml plasma aliquots. […] A further control compound (internal standard) was added to each sample, along with 1.5 ml of pH 7 0.05M phosphate buffer (Electronic Instruments Ltd.) and 6 mls of ethyl acetate. The samples were mixed and then centrifuged and a 5 ml aliquot of the ethyl acetate layer (upper layer) was removed and evaporated to dryness in a polypropylene tube. The residue was re-dissolved in 400 μl of water:acetonitrile (70:30 v/v).
The fraction was evaporated to dryness and reconstituted in 400 μl of an HPLC eluent; 0.02 M pH 7 phosphate buffer; acetonitrile (85:15 v/v). 200 μl of the reconstituted fraction was then injected onto the chiral chromatographic system.

[2] = tested on: serum PSA levels; assay: Change in serum PSA levels in M0/M1 prostate cancer patients (Example 1); format: in vivo, human
Experimental: Patients had histologically or cytologically confirmed M0 (T3 or T4) or M1 prostate cancer and a PSA level ≧20 ng/mL.

[3] = cited from earlier work
[4] = tested on: advanced prostate cancer (M0 or M1); assay: Survival (Kaplan-Meier time to death) versus castration in patients with advanced prostate cancer (Example 1); conditions: 450-600 mg
Method: Tolerability was similarly assessed at 450 mg/day (3 tablets) and 600 mg/day (4 tablets).
After objective disease progression, patients were followed up every 3 months for survival and/or adverse event data.
Results are presented as for both the overall patient population and also by disease stage (M0 or M1).

Compound | Steady state plasma conc. geometric mean ([1]; 300 mg once daily, 18 patients) [µg/mL] | Steady state plasma conc. geometric mean ([1]; 450 mg once daily, 82 patients) [µg/mL] | Steady state plasma conc. geometric mean ([1]; 600 mg once daily, 34 patients) [µg/mL] | plasma concentration of (R)-bicalutamide higher than with bicalutamide 150 mg ([1]; doses ≥300 mg vs 150 mg (21.6 μg/mL)) | plasma concentration of (R)-bicalutamide higher than with bicalutamide 200 mg ([1]; doses ≥300 mg vs 200 mg (28.9 μg/mL)) | mean steady state plasma concentration of R-bicalutamide ([1]; patients, conventional tablets, doses of 300 mg/day and above (300-600 mg)) [µg/mL] | percentage decrease in PSA ([2]; Week 12, bicalutamide 300 mg) [%] | percentage decrease in PSA ([2]; Week 12, bicalutamide 450 mg) [%] | percentage decrease in PSA ([2]; Week 12, bicalutamide 600 mg) [%] | percentage reduction in geometric mean PSA compared with castration group ([2]; baseline to Week 4) | t1/2 of (R)-bicalutamide ([3]; bicalutamide doses of 10-200 mg) [h] | mean steady state plasma concentration of R-bicalutamide ([3]; patients, 150 mg daily) | plasma concentration of (R)-bicalutamide (Css) ([3]; patients, bicalutamide 200 mg) [ng/mL] | events (deaths), share of patients ([4]; M0 patients, 28/74) [%] | events (deaths), share of patients ([4]; M1 patients, 43/63) [%] | events (deaths), share of patients ([4]; all patients, median 5 years follow up, 71/137) [%] | share of the total circulating enantiomers at steady state ([3]; steady state)
4′-cyano-α′,α′,α′-trifluoro-3-(4-fluorophenylsulphonyl)-2-hydroxy-2-methylpropiono-m-toluidide [Bicalutamide] | 35 | 31 | 36 | approximately 50% | approximately 15% | 31 to 36 | 93 | 95 | 96 | greater percentage reductions in geometric mean PSA values | 150 to 213 | 21.6 µg/mL and 21 µg/mL | 28900 | 37.8 | 68.3 | 51.8 | 
C[C@](O)(CS(=O)(=O)c1ccc(F)cc1)C(=O)Nc1ccc(C#N)c(C(F)(F)F)c1 [R-Bicalutamide] |  |  |  |  |  |  |  |  |  |  |  |  |  |  |  |  | approximately 99%
